# Test results taken from PubChem BioAssay AID330 (DTP/NCI, 2004).
# Where “and” joins values, the source holds several entries; their conditions need not be identical. Equal entries are not always repeated. Inconclusive results and toxic doses are left out.
# System: P388 leukemia ip, CD2F1 mice, survival T/C
# Experiment: NCI In Vivo Anticancer Drug Screen. Data for tumor model P388 Leukemia (intraperitoneal) in CD2F1 (CDF1) mice
# Settings: endpoint: median survival time, higher = longer survival
# In short: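 Mice carrying the transplanted tumor received test compound or vehicle. Survival was recorded in each group, and the value is the treated-group measurement divided by that of the vehicle-treated control group.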
# [1] = dose: 50.0 mg/kg/injection, schedule: Q01DX005 (ip), vehicle: Klucel (hydroxypropylcellulose) (HPC)
# [2] = dose: 100.0 mg/kg/injection, schedule: Q01DX005 (ip), vehicle: Klucel (hydroxypropylcellulose) (HPC)
# [3] = dose: 200.0 mg/kg/injection, schedule: Q01DX005 (ip), vehicle: Klucel (hydroxypropylcellulose) (HPC)
# [4] = dose: 400.0 mg/kg/injection, schedule: Q01DX001 (ip), vehicle: saline with Tween-80
# [5] = dose: 50.0 mg/kg/injection, schedule: Q01DX009 (ip), vehicle: saline
# [6] = dose: 100.0 mg/kg/injection, schedule: Q01DX009 (ip), vehicle: saline
# [7] = dose: 100.0 mg/kg/injection, schedule: Q01DX009 (ip), vehicle: saline with Tween-80
# [8] = dose: 200.0 mg/kg/injection, schedule: Q01DX009 (ip), vehicle: saline with Tween-80
compound,measurement,setting,value
Nc1nc(=O)n(C2CCCCO2)cc1I (stereo not given),T/C,[1],105 % of control
same,T/C,[2],102 % of control
same,T/C,[3],111 % of control
CCOC(=O)/C(=C\c1c(OC(C)=O)cn2c(C)cccc12)C(C)=O,T/C,"dose: 100.0 mg/kg/injection, schedule: Q01DX001 (ip), vehicle: saline with Tween-80",98 % of control
same,T/C,"dose: 200.0 mg/kg/injection, schedule: Q01DX001 (ip), vehicle: saline with Tween-80",94 % of control
same,T/C,[4],94 % of control
O=S(=O)(O)O.[NH-]C(c1ccccc1)C([NH-])c1ccccc1.[Pt+2] (stereo not given),T/C,"dose: 1.56 mg/kg/injection, schedule: Q04DX002 (ip), vehicle: saline",110 % of control
same,T/C,"dose: 6.25 mg/kg/injection, schedule: Q04DX002 (ip), vehicle: saline",163 % of control
same,T/C,"dose: 12.5 mg/kg/injection, schedule: Q04DX002 (ip), vehicle: saline",157 % of control and 173 % of control
same,T/C,"dose: 25.0 mg/kg/injection, schedule: Q04DX002 (ip), vehicle: saline",153 % of control and 169 % of control and 185 % of control
CCC[CH2][Sn]([CH2]CCC)([O]S(=O)c1ccccc1)[O]S(=O)c1ccccc1 (stereo not given),T/C,"dose: 3.12 mg/kg/injection, schedule: Q01DX001 (ip), vehicle: saline with Tween-80",103 % of control
same,T/C,"dose: 6.25 mg/kg/injection, schedule: Q01DX001 (ip), vehicle: saline with Tween-80",119 % of control
O=C([OH2+])C[N]1C(=O)C[NH][Ga]1[Cl].O=C([OH2+])C[N]1C(=O)C[NH][Ga]1[Cl],T/C,[1],108 % of control
same,T/C,[2],100 % of control
same,T/C,[3],98 % of control
Nc1ccccc1C(=O)Nc1ccc(Cl)cc1C(=O)O,T/C,[5],101 % of control
same,T/C,[6],106 % of control
C=CCC(C=C=CCN(C)C)CO (stereo not given),T/C,"dose: 50.0 mg/kg/injection, schedule: Q01DX005 (ip), vehicle: saline",103 % of control
same,T/C,"dose: 100.0 mg/kg/injection, schedule: Q01DX005 (ip), vehicle: saline",104 % of control
Cn1ncc(N)nc1=S,T/C,"dose: 50.0 mg/kg/injection, schedule: Q01DX005 (ip), vehicle: suspension in saline",101 % of control
same,T/C,"dose: 100.0 mg/kg/injection, schedule: Q01DX005 (ip), vehicle: suspension in saline",97 % of control
same,T/C,"dose: 200.0 mg/kg/injection, schedule: Q01DX005 (ip), vehicle: suspension in saline",105 % of control
COc1cc(/C=N\N=C\c2cc(OC)c(OC)c(OC)c2)cc(OC)c1OC,T/C,"dose: 200.0 mg/kg/injection, schedule: Q04DX003 (ip), vehicle: saline with Tween-80",100 % of control
CCN(CC)CCCNc1cc(C)nc2c1ccc1c2ccc2c(NCCCN(CC)CC)cc(C)nc21,T/C,"dose: 12.5 mg/kg/injection, schedule: Q01DX009 (ip), vehicle: water",105 % of control
same,T/C,"dose: 25.0 mg/kg/injection, schedule: Q01DX009 (ip), vehicle: water",103 % of control
same,T/C,"dose: 50.0 mg/kg/injection, schedule: Q01DX009 (ip), vehicle: water",116 % of control
N#CCCCCCCCCCCCC1C=CCC1 (stereo not given),T/C,"dose: 100.0 mg/kg/injection, schedule: Q01DX001 (ip), vehicle: saline",100 % of control
same,T/C,"dose: 200.0 mg/kg/injection, schedule: Q01DX001 (ip), vehicle: saline",98 % of control
same,T/C,"dose: 400.0 mg/kg/injection, schedule: Q01DX001 (ip), vehicle: saline",100 % of control
CN1CCS(=O)(=O)C2CCCCC2C1=O (stereo not given),T/C,"dose: 50.0 mg/kg/injection, schedule: Q01DX009 (ip), vehicle: saline with Tween-80",96 % of control
same,T/C,[7],104 % of control
same,T/C,[8],96 % of control
O=C(CCN1C(=O)CC1c1ccco1)N1CCOCC1 (stereo not given),T/C,"dose: 60.0 mg/kg/injection, schedule: Q01DX005 (ip), vehicle: saline with Tween-80",103 % of control
same,T/C,"dose: 120.0 mg/kg/injection, schedule: Q01DX005 (ip), vehicle: saline with Tween-80",103 % of control
same,T/C,"dose: 240.0 mg/kg/injection, schedule: Q01DX005 (ip), vehicle: saline with Tween-80",97 % of control
O=C(c1ccccc1)c1ccc2c(c1)-c1ccccc1-2,T/C,[7],100 % of control
same,T/C,[8],104 % of control
same,T/C,"dose: 400.0 mg/kg/injection, schedule: Q01DX009 (ip), vehicle: saline with Tween-80",95 % of control
COC(=O)Cn1/c(=N\N=C(/C)c2ccc([N+](=O)[O-])cc2)sc2ccccc21,T/C,"dose: 12.5 mg/kg/injection, schedule: Q01DX001 (ip), vehicle: saline with Tween-80",92 % of control
same,T/C,"dose: 25.0 mg/kg/injection, schedule: Q01DX001 (ip), vehicle: saline with Tween-80",89 % of control
same,T/C,"dose: 50.0 mg/kg/injection, schedule: Q01DX001 (ip), vehicle: saline with Tween-80",89 % of control
same,T/C,[4],88 % of control
O=C(OCN1C(=O)C2C3C=CC(C2C1=O)C1C2C(=O)N(COC(=O)C4CCCN4)C(=O)C2C31)C1CCCN1 (stereo not given),T/C,"dose: 25.0 mg/kg/injection, schedule: Q01DX009 (ip), vehicle: saline",105 % of control and 108 % of control
same,T/C,[5],108 % of control
same,T/C,[6],162 % of control and 205 % of control
